Like-named read-outs stand apart in the source and are kept apart here. Marks after values point to notes of the source that are not given here.
Test: Phase 1/1b clinical trial: plasma pharmacokinetics of PF-07220060
Assay type: in vivo, human
Settings: for Cmax / AUC / Tmax / half-life: human, plasma, po; for Tmax: median, read-out: Tmax; for half-life: arithmetic mean
Procedure: Oral PF-07220060 was administered with at least 8 oz (240 mL) of water on an empty stomach (except during the food effect evaluation on Day-7 in Part 1D). No food or liquids other than water was consumed for 2 hours before and 1 hour following each dose throughout the study for BID dosing. No food or liquids other than water was consumed for 2 hours before and 2 hours after each dose throughout the study for QD dosing.
In the ongoing Phase 1/1b Study, as of Aug. 30, 2022, preliminary PK data for PF-07220060 as monotherapy (Part 1A) and in combination with endocrine therapy (Part 1B and Part 1C) was available from 60 participants with advanced solid tumors. PF-07220060 was administered orally as a single agent at doses ranging from 100 to 500 mg BID, and in combination with either letrozole or fulvestrant at 300 to 400 mg BID. Available plasma concentration-time data of PF-07220060 were analyzed using noncompartmental methods.
Preliminary noncompartmental PK analysis was conducted based on available samples collected from participants in the Study. […] Table 4 presents the summary of PK parameters for PF-07220060 as monotherapy, and in combination with letrozole or fulvestrant.

[1] = 200 mg BID oral monotherapy (Part 1A), C1D15, geometric mean
[2] = 300 mg BID oral + fulvestrant (Part 1C), C1D15, geometric mean
[3] = 300 mg BID oral + letrozole (Part 1B), C1D15, geometric mean
[4] = 300 mg BID oral monotherapy (Part 1A), C1D15, geometric mean
[5] = 400 mg BID oral + fulvestrant (Part 1C), C1D15, geometric mean
[6] = 400 mg BID oral + letrozole (Part 1B), C1D15, geometric mean
[7] = 400 mg BID oral monotherapy (Part 1A), C1D15, geometric mean

SMILES: CC(C)n1c(C(C)(C)O)nc2c(F)cc(-c3nc(N[C@@H]4CCOC[C@H]4O)ncc3Cl)cc21 [PF-07220060, 1,5-anhydro-3-({5-chloro-4-[4-fluoro-2-(2-hydroxypropan-2-yl)-1-(propan-2-yl)-1H-benzimidazol-6-yl]pyrimidin-2-yl}amino)-2,3-dideoxy-D-threo-pentitol]
- CL/F (100 mg BID oral monotherapy (Part 1A), C1D15, geometric mean, n = 2): 24.61 L/h
- CL/F [1]: 31.41 L/h
- Cmin [1]: 0.44 µg/mL
- CL/F [2]: 38.02 L/h
- Cmin [2]: 0.3474 µg/mL
- CL/F [3]: 28.95 L/h
- Cmin [3]: 0.4871 µg/mL
- CL/F [4]: 37.06 L/h
- Cmin [4]: 0.4704 µg/mL
- CL/F [5]: 41.86 L/h
- Cmin [5]: 0.5633 µg/mL
- CL/F [6]: 34.9 L/h
- Cmin [6]: 0.7283 µg/mL
- CL/F [7]: 49.98 L/h
- Cmin [7]: 0.4503 µg/mL
- Cmin (500 mg BID oral monotherapy (Part 1A), C1D15, geometric mean): 0.8488 µg/mL
- CL/F (500 mg BID oral monotherapy (Part 1A), C1D15, n = 1): 40.1^a L/hr
- Cmax (100 mg, 100 mg BID oral monotherapy (Part 1A), C1D1 post first dose, geometric mean): 0.28 µg/mL
- AUC (100 mg, 100 mg BID oral monotherapy (Part 1A), C1D1 post first dose, geometric mean, read-out: AUC12): 1.78 µg·h/mL
- Tmax (100 mg, 100 mg BID oral monotherapy (Part 1A), C1D1 post first dose): 2 h
- AUC (100 mg, 100 mg BID oral monotherapy (Part 1A), C1D15, geometric mean, n = 2, read-out: AUCtau): 4.06 µg·h/mL
- Cmax (100 mg, 100 mg BID oral monotherapy (Part 1A), C1D15 post multiple doses, geometric mean): 0.617 µg/mL
- Tmax (100 mg, 100 mg BID oral monotherapy (Part 1A), C1D15 post multiple doses): 1 h
- Cmax (200 mg, 200 mg BID oral monotherapy (Part 1A), C1D1 post first dose, geometric mean): 0.454 µg/mL
- AUC (200 mg, 200 mg BID oral monotherapy (Part 1A), C1D1 post first dose, geometric mean, read-out: AUC12): 2.33 µg·h/mL
- Tmax (200 mg, 200 mg BID oral monotherapy (Part 1A), C1D1 post first dose): 3.9 h
- half-life (200 mg, 200 mg BID oral monotherapy (Part 1A), C1D15): 5.1 h
- AUC (200 mg, 200 mg BID oral monotherapy (Part 1A), C1D15, geometric mean, read-out: AUCtau): 6.37 µg·h/mL
- Cmax (200 mg, 200 mg BID oral monotherapy (Part 1A), C1D15 post multiple doses, geometric mean): 1.01 µg/mL
- Tmax (200 mg, 200 mg BID oral monotherapy (Part 1A), C1D15 post multiple doses): 2.5 h
- Cmax (300 mg BID oral + fulvestrant (Part 1C), C1D1 post first dose, geometric mean): 0.849 µg/mL
- AUC (300 mg BID oral + fulvestrant (Part 1C), C1D1 post first dose, geometric mean, read-out: AUC12): 6.13 µg·h/mL
- Tmax (300 mg BID oral + fulvestrant (Part 1C), C1D1 post first dose): 2 h
- half-life (300 mg BID oral + fulvestrant (Part 1C), C1D15): 5.7 h
- AUC (300 mg BID oral + fulvestrant (Part 1C), C1D15, geometric mean, read-out: AUCtau): 7.89 µg·h/mL
- Cmax (300 mg BID oral + fulvestrant (Part 1C), C1D15 post multiple doses, geometric mean): 1.19 µg/mL
- Tmax (300 mg BID oral + fulvestrant (Part 1C), C1D15 post multiple doses): 1 h
- Cmax (300 mg BID oral + letrozole (Part 1B), C1D1 post first dose, geometric mean): 0.989 µg/mL
- AUC (300 mg BID oral + letrozole (Part 1B), C1D1 post first dose, geometric mean, read-out: AUC12): 6.44 µg·h/mL
- Tmax (300 mg BID oral + letrozole (Part 1B), C1D1 post first dose): 3 h
- half-life (300 mg BID oral + letrozole (Part 1B), C1D15): 4.1 h
- AUC (300 mg BID oral + letrozole (Part 1B), C1D15, geometric mean, read-out: AUCtau): 10.4 µg·h/mL
- Cmax (300 mg BID oral + letrozole (Part 1B), C1D15 post multiple doses, geometric mean): 1.53 µg/mL
- Tmax (300 mg BID oral + letrozole (Part 1B), C1D15 post multiple doses): 1 h
- Cmax (300 mg, 300 mg BID oral monotherapy (Part 1A), C1D1 post first dose, geometric mean): 0.741 µg/mL
- AUC (300 mg, 300 mg BID oral monotherapy (Part 1A), C1D1 post first dose, geometric mean, read-out: AUC12): 4.56 µg·h/mL
- Tmax (300 mg, 300 mg BID oral monotherapy (Part 1A), C1D1 post first dose): 3.8 h
- AUC (300 mg, 300 mg BID oral monotherapy (Part 1A), C1D15, geometric mean, read-out: AUCtau): 8.1 µg·h/mL
- Cmax (300 mg, 300 mg BID oral monotherapy (Part 1A), C1D15 post multiple doses, geometric mean): 1.17 µg/mL
- Tmax (300 mg, 300 mg BID oral monotherapy (Part 1A), C1D15 post multiple doses): 2.1 h
- Cmax (400 mg BID oral + fulvestrant (Part 1C), C1D1 post first dose, geometric mean): 0.731 µg/mL
- AUC (400 mg BID oral + fulvestrant (Part 1C), C1D1 post first dose, geometric mean, read-out: AUC12): 4.84 µg·h/mL
- Tmax (400 mg BID oral + fulvestrant (Part 1C), C1D1 post first dose): 2.2 h
- half-life (400 mg BID oral + fulvestrant (Part 1C), C1D15): 6.6 h
- Cmax (400 mg BID oral + letrozole (Part 1B), C1D1 post first dose, geometric mean): 0.95 µg/mL
